Literature values in US11234935B2, “Method of inducing satiety” (PERORA GMBH, priority 2015, dated 2022).

Conditions: rat feeding study; independent from intake

## CCCCCCCCCCCCCCCCCC(=O)OCC(COC(=O)CCCCCCCCCCCCCCCCC)OC(=O)CCCCCCCCCCCCCCCCC [tristearin]
  true digestibility of stearic acid from tristearin: 0.15 g/g
